According to ChEMBL document CHEMBL6134780, “Halogenated retinoid derivatives as dual RARα and RXRα modulators for treating acute promyelocytic leukemia cells” (Eur J Med Chem, 2024):
Calls of active or inactive are those of the source. No cut-off for these calls is given here.

Assays:
[1] = tested on: NB-4; test: Cell cycle arrest in human NB4 cells assessed as accumulation of cells at sub-G1 phase at 0.5 uM incubated for 6 days for DAPI staining based flow cytometric analysis (reference value: 6 %); format: functional; details: time 6 day
[2] = biological target: T1, Retinoic acid receptor beta (Homo sapiens) (UniProt P10826); test: Agonist activity at Gal4-fused full length RARbeta LBD (unknown origin) transfected in HEK293T cells co-transfected with pG5luc reporter and Renilla-luc at 0.1 to 1 uM incubated for 12 hrs by luciferase reporter gene assay; format: cell-based; details: dose 0.1-1 µM
T1 sequence (whole entry): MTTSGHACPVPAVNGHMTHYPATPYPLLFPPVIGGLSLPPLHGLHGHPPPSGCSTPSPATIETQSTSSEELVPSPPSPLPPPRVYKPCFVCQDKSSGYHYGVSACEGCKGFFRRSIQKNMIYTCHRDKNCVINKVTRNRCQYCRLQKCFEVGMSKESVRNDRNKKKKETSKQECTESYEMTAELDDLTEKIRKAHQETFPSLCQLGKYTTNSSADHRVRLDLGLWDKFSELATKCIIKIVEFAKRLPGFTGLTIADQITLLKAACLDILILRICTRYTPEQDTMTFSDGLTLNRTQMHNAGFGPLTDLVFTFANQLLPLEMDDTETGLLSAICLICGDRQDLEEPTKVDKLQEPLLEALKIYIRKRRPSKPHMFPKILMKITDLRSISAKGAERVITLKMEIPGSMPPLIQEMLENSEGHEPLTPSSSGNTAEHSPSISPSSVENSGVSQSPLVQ

[3] = tested on: NB-4; test: Induction of apoptosis in human NB4 cells at 2 uM incubated for 3 hrs by Western blot analysis; format: functional, cell-based
[4] = tested on: ATRA-resistant NB4-LR2; test: Antiproliferative activity against human ATRA-resistant NB4-LR2 cells assessed as effect on cell viability up to 2 uM incubated for 3 days by CCK8 assay; format: functional, cell-based; details: time 3.0 day
[5] = tested on: ATRA-resistant NB4-LR2; test: Induction of apoptosis in human ATRA-resistant NB4-LR2 cells assessed as PARP cleavage at 0.5 uM incubated for 24 hrs by Western blot analysis; format: functional, cell-based
[6] = biological target: T2, Retinoic acid receptor gamma (Homo sapiens) (UniProt P13631); test: Agonist activity at Gal4-fused full length human RARgamma LBD transfected in HEK293T cells co-transfected with pG5luc reporter and Renilla-luc assessed as transactivation by measuring maximal efficacy incubated for 12 hrs by dual luciferase reporter gene assay relative to control; format: cell-based
T2 sequence (whole entry): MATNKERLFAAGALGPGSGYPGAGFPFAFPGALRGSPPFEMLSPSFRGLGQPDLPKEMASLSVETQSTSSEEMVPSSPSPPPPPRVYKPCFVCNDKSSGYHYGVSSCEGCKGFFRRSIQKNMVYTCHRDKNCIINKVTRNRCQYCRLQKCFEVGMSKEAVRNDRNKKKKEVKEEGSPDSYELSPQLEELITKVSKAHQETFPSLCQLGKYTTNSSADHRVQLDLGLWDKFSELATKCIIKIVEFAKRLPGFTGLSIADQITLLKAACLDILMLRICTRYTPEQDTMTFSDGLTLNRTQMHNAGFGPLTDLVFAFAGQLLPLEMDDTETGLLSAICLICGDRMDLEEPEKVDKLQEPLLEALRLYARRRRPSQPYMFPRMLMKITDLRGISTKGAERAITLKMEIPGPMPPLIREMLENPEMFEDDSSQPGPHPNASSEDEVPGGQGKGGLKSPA

[7] = biological target: T2, Retinoic acid receptor gamma (Homo sapiens); test: Agonist activity at Gal4-fused full length RARgamma LBD (unknown origin) transfected in HEK293T cells co-transfected with pG5luc reporter and Renilla-luc assessed as transactivation at 0.1 to 1 uM incubated for 12 hrs by luciferase reporter gene assay; format: cell-based; details: dose 0.1-1 µM
[8] = tested on: NB-4; test: Induction of apoptosis in human NB4 cells assessed as late apoptotic cells at 1 uM incubated for 24 hrs by Annexin V-FITC/PI staining based flow cytometric analysis (reference value: 3.20 %); format: functional
[9] = biological target: Peroxisome proliferator-activated receptor gamma (Homo sapiens) (UniProt P37231); test: Agonist activity at Gal4-fused full length PPARgamma LBD (unknown origin) transfected in HEK293T cells co-transfected with pG5luc reporter and Renilla-luc at 0.1 to 1 uM incubated for 12 hrs by luciferase reporter gene assay; format: cell-based; details: dose 0.1-1 µM
[10] = biological target: T3, Retinoic acid receptor alpha (Homo sapiens, UniProt P10276); test: Binding affinity to N-terminal His-tagged human RARalpha LBD extracted from Escherichia coli BL21 (DE3) cells assessed as dissociation constant by fluorescence quenching assay
T3 sequence (P10276 whole entry): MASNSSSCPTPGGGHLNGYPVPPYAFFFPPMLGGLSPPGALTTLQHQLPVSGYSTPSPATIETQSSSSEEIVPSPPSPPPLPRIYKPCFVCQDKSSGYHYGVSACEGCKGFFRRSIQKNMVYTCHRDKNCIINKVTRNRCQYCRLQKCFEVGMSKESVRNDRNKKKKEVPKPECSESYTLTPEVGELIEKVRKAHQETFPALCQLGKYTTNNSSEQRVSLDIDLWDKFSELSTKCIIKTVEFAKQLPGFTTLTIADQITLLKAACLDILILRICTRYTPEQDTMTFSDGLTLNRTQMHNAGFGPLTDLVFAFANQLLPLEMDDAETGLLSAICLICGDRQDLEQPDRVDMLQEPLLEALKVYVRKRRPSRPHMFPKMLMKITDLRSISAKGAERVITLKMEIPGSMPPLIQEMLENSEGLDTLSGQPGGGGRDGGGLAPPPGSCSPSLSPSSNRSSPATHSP

[11] = tested on: NB-4; test: Induction of DNA damage in human NB4 cells assessed as increase in gamma-H2AX expression at 2 uM by Western blot analysis; format: functional, cell-based
[12] = tested on: HEK293T; test: Agonist activity at 3-Flag-tagged PML-RARalpha/HA-tagged RXRalpha (unknown origin) transfected in HEK293T cells co-transfected with pGL3-beta-RARE and Renilla-luc assessed as increase in transcriptional activity at 1 uM incubated for 12 hrs by luciferase reporter gene assay relative to ATRA; format: cell-based; details: Homo sapiens, filed as agonist
[13] = tested on: K562; test: Induction of apoptosis in human K562 cells assessed as necrotic cells at 2 uM incubated for 24 hrs by Annexin V-FITC/PI staining based flow cytometric analysis (reference value: 2.19 %); format: functional
[14] = tested on: HeLa; test: Induction of 3-flag-tagged PML-RARalpha R276E mutant (unknown origin) degradation transfected in human HeLa cells at 1 to 2 uM incubated for 24 hrs by Western blot analysis; format: cell-based; details: dose 1-2 µM
[15] = tested on: NB-4; test: Cell cycle arrest in human NB4 cells assessed as accumulation of cells at G2/M phase at 0.5 uM incubated for 6 days for DAPI staining based flow cytometric analysis (reference value: 15 %); format: functional; details: time 6 day
[16] = tested on: K562; test: Induction of apoptosis in human K562 cells assessed as late apoptotic cells at 2 uM incubated for 24 hrs by Annexin V-FITC/PI staining based flow cytometric analysis (reference value: 5.98 %); format: functional
[17] = tested on: NB-4; test: Induction of apoptosis in human NB4 cells assessed as PARP cleavage at >1 uM incubated for 24 hrs by Western blot analysis; format: functional, cell-based
[18] = tested on: Jurkat; test: Induction of cell differentiation in human Jurkat cells at 0.5 uM incubated for 6 days by CD11b staining based flow cytometric analysis; format: functional; details: time 6.0 day

Chain of Peroxisome proliferator-activated receptor gamma (Homo sapiens) (P37231 whole entry, the tested form may be a part): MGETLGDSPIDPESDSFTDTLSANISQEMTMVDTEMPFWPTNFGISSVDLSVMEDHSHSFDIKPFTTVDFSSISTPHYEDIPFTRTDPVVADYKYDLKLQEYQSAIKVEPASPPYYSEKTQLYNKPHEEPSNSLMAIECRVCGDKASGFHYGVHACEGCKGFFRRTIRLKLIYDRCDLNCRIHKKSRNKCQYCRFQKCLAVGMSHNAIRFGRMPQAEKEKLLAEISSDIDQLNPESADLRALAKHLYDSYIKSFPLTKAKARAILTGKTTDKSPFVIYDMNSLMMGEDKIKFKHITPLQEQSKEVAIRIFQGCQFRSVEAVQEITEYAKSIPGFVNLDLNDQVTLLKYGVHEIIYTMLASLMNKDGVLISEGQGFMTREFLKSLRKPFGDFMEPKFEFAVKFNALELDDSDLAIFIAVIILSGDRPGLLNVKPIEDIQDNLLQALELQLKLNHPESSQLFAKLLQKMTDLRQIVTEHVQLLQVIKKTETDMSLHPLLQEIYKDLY

| Activity [2] | Emax [6] [%] | Activity [7] | Activity [9] | Kd [10] [nM] | SMILES | Activity [1] [%] | Activity [3] | Activity [4] | Activity [5] | Activity [8] [%] | Activity [11] | Activity [12] [%] | Activity [13] [%] | Activity [14] | Activity [15] [%] | Activity [16] [%] | Activity [17] | Activity [18] |
| --- | --- | --- | --- | --- | --- | --- | --- | --- | --- | --- | --- | --- | --- | --- | --- | --- | --- | --- |
| Minimal_effect | 15 | Weak_effect | Weak_effect | 433 | Cc1cc2c(cc1C(=O)/C(Br)=C/c1ccc(C(=O)O)cc1)C(C)(C)CCC2(C)C | 9 | inactive | Active | Active | 15.77 | Active; Dna Damage Detected When Apoptosis Occurred | > 70 | 2.27 | inactive | 13 | 7.92 | Active | inactive |
| Minimal_effect | 2 | Weak_effect | Weak_effect | 553 | Cc1cc2c(cc1C(=O)/C(Br)=C\c1ccc(C(=O)O)cc1)C(C)(C)CCC2(C)C | 6 | inactive | Active | Active | 10.49 | Active; Dna Damage Detected When Apoptosis Occurred | > 70 | 3.03 | inactive | 14 | 7.14 | Active | inactive |
